BindingDB's records for doi:10.1021/jm970742b (University of Pennsylvania, 1998)

Target: Sodium-dependent dopamine transporter (Rattus norvegicus, UniProt P23977)
Assay: In vitro binding affinity towards dopamine transporter in rat striatal homogenate with [125I]IPT as the radioligand

Chain of Sodium-dependent dopamine transporter (P23977 whole entry): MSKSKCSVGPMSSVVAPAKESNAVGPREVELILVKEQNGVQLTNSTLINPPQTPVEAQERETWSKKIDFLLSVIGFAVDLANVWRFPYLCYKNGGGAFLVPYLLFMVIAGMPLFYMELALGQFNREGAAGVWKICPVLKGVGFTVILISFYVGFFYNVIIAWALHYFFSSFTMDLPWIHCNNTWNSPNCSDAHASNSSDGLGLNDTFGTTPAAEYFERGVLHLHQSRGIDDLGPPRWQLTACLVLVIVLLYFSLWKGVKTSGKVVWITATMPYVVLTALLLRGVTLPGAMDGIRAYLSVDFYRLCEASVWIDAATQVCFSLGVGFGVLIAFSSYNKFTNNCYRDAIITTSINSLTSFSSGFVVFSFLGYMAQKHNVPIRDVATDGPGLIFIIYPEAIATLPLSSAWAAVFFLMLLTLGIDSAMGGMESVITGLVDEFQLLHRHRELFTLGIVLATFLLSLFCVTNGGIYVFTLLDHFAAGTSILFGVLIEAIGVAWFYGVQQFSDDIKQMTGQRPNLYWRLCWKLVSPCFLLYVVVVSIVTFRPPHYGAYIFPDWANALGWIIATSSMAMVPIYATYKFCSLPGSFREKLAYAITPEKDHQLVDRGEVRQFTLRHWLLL

Row | Structure (SMILES) | Ki [nM]
1 | CN1C2CCC1[C@H](c1ccc(Cl)cc1)[C@H]2CN1CC[S][Re]2(=[O])[S]CC[N]2CC1 (stereo partly drawn) [2-[[2-[[[3-(4-chlorophenyl)-8-methyl-8-azabicyclo[3.2.1]oct-2-yl]methyl](2-mercaptoethyl)amino]ethyl]amino]ethanethiolato(3-)-oxo-[1R-(exo-exo)]-;2-{Oxo[N(R),N-bis(2-mercaptoethyl)ethylenediaminato]rhenium(V)methyl}-3-(4-chlorophenyl)tropane] | 13.9
2 | CN1C2CCC1[C@H](c1ccc(Cl)cc1)[C@@H]2CN1CC[S][Re]2(=[O])[S]CC[N]2CC1 (stereo partly drawn) [2-[[2-[[[3-(4-chlorophenyl)-8-methyl-8-azabicyclo[3.2.1]oct-2-yl]methyl](2-mercaptoethyl)amino]ethyl]amino]ethanethiolato(3-)-oxo-[1R-(exo-exo)]-;2-{Oxo[N(S),N-bis(2-mercaptoethyl)ethylenediaminato]rhenium(V)methyl}-3-(4-chlorophenyl)tropane] | 8.42
